Data taken from patent publication US20070219180A1, “Muscle Relaxtion Accelerator and Therapeutic Agent for Muscular Tissue Diseases Such as Muscle Relaxation Failure” (priority 2004, published 2007).

Tested on: binding of troponin I to the actin-tropomyosin complex
Test: Experiment 4 and comparison example: co-precipitation (binding) of troponin I with the actin-tropomyosin complex in the presence of EGTA
Design: species or system swine
Conditions: for Precipitate of troponin I (ratio to the sample without drug): 10 mM EGTA, 100,000×g 120 min 25° C.
Description: The actin-tropomyosin complex and the troponin C-I complex are usually detected by analyzing the precipitate obtained by ultracentrifugation of a mixture containing the actin-tropomyosin complex and the troponin C-I complex for 120 minutes at 100,000×g at 25° C. The binding of the troponin C-I complex to the actin-tropomyosin complex in muscle tissues can be confirmed by the detected actin-tropomyosin complex and the detected troponin C-I complex. For example, when a mixture containing the actin-tropomyosin complex and the troponin C-I complex is ultracentrifuged in the presence of EGTA as a calcium chelating agent (in other words, in the absence of calcium ions), the actin-tropomyosin complex and the troponin C-I complex combine each other to precipitate together. Detection of troponin I in the precipitate using SDS-gel electrophoresis allows confirmation that the precipitate contains a complex formed by the actin-tropomyosin complex and the troponin C-I complex.
A precipitate due to binding of the actin-tropomyosin complex and troponin I is usually not formed when a mixture containing the actin-tropomyosin complex, troponin and propranolol (a β-blocker) used as a therapeutic agent for heart failure is ultracentrifuged at 100,000×g for 120 minutes 25° C.
Swine muscle-derived actin, chicken gizzard-derived tropomyosin and swine myocardium-derived troponin used in this experiment were purchased from Sigma-Aldrich Corporation, and other unspecified reagents used in this experiment were purchased from Wako Pure Chemical Industries Ltd.
A 500 μl sample was prepared by adding 4.2 μg of actin, 2.1 μg of tropomyosin and 14 μg of troponin to 500 μl of a reaction solution containing 60 mM KCl, 20 mM MOPS (3-morpholinopropanesulfonic acid), 2 mM of MgCl2, 0.05 μg of pepstatin A, and 15 mM 2-mercaptoethanol. After centrifugation of this sample at 2,000×g for 10 minutes at 25° C., the precipitate was removed and the resulting supernatant was distributed to separate test tubes containing 10 mM of EGTA, and each tube was determined as a test sample.
Each test sample was reacted for 120 minutes at 25° C. and centrifuged at 100,000×g for 120 minutes at 25° C., and the supernatants were removed. After reaction solution was gently added to the removed precipitate so as not to suspend the precipitate, the precipitate was again removed by suction, washed, and determined as a test precipitate.
A sample buffer for polyacrylamide gel electrophoresis (SDS-PAGE) was added to each washed test precipitate and mixed well to suspend the test precipitate. The resulting suspension was electrophoresized on a gel (PAG MINI “No. 1” 10/20) for about 1 hour at 40 mA. After electrophoresis, the suspension was silver-stained using “Daiichi” 2D-silver staining reagent (Daiichi Pure Chemicals Co., Ltd), and washed with distilled water and dried. The amount of precipitate in each silver-stained protein band obtained by gel electrophoresis was quantitated using a densitometer.
The amounts of precipitate of troponin I in the second to fifth test precipitates were calculated as ratios of the amount of precipitate of troponin I in the first test precipitate, which was obtained without the compound (the concentration of the compound was 0 M).
The affinity of troponin I for the actin-tropomyosin complex was measured using the same method as in Experiment 4, but using propranolol (a β-blocker which is used as a therapeutic agent for heart failure) for comparison with the compound in the invention.
A 500 μl sample was prepared by adding 4.2 μg of actin, 2.1 μg of tropomyosin and 14 μg of troponin I to 500 μl of a reaction solution containing 60 mM KCl, 20 mM MOPS (3-morpholinopropanesulfonic acid), 2 mM MgCl2, 0.05 μg of pepstatin A, and 15 mM 2-mercaptoethanol. […]

Precipitate of troponin I (ratio to the sample without drug) (drug concentration 10^−4 mol): 1.1
Precipitate of troponin I (ratio to the sample without drug) (drug concentration 10^−5 mol): 0.9
Precipitate of troponin I (ratio to the sample without drug) (drug concentration 10^−6 mol): 1.1
Precipitate of troponin I (ratio to the sample without drug) (drug concentration 10^−7 mol): 0.9
SMILES: CC(C)NCC(O)COc1cccc2ccccc12 (centres unmarked) [Propranolol, propranolol]
Effect on the bonding strength of troponin I to the actin-tropomyosin complex (co-precipitation) (ultracentrifugation 100,000×g, 120 minutes, 25° C.): does not enhance the bonding strength of troponin to the actin-tropomyosin complex
